pEC50: −log10 of the molar value. In brackets after ≈: the same amount, converted by molar mass. Several values for one entry are separate records, joined by “and”; a condition that tells them apart may be missing. Identical values can stand only once. Like-named read-outs stand apart in the source and are kept apart here.
What was measured:
[1] = tested on: non-growing P. aeruginosa DSM1117; assay: Dose-dependent killing analysis (CFU spot-plating) of stationary-phase P. aeruginosa; assay type: cell-based, Pseudomonas aeruginosa; details: P. aeruginosa; for log10(CFU/ml) of treated nongrowing bacteria (single replicates): before treatment 8.887
Procedure: The cultures were grown and treated for 24 h in 1:4 CA-MHB (pH 7.4).
For survival analysis, bacteria were cultivated as described for the dose–response dilution-regrowth assay. Assays with UPEC were conducted at the CBCS screening facility using 96-well plates with a 200 μl sample volume, and compounds were dispensed using the Echo® (Labcyte) system. P. aeruginosa and S. aureus samples were treated according to the protocol used for the dilution-regrowth experiments. Treated samples were serially diluted 10-fold in PBS, and 10 μl drops were spot-plated onto rectangular LB agar plates using either a Beckman NXP robot (for UPEC) or an Integra VIAFLO96 electronic pipette (for P. aeruginosa and S. aureus). The LB agar plates were incubated overnight at 37 °C and scanned. Colonies were counted at the spots of the lowest dilution where individual colonies could be accurately distinguished. Each colony was manually marked on a separate image layer using the GNU Image Manipulation Program, and counted using NIST’s Integrated Colony Enumerator (NICE 1.4) software. The experiments were performed in three biological replicates.

[2] = tested on: non-growing UPEC CFT073; assay: Dilution-regrowth assay (screen, hit validation, dose-response) on stationary-phase UPEC; assay type: cell-based, Escherichia coli; details: Escherichia coli, E. coli, regrowth delay of non-growing bacteria, 24 h treatment, OD600 6 h after 2500-fold dilution, read-out: EC50
How it was run: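 Regrowth (OD600 after 6 h, 37 °C) of diluted non-growing CFT073, following 24 h compound treatment of 24 h stationary cultures, defines activity relative to untreated control. Screen at 20 µM, validation at 20, 10, 5 µM (duplicates), dose–response in three biological replicates fitted by five-parameter logistic.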

[3] = tested on: non-growing UPEC CFT073; assay: Dose-dependent killing analysis (CFU spot-plating) of stationary-phase UPEC; assay type: cell-based, Escherichia coli
How it was run: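 Non-growing (stationary-phase) UPEC CFT073 treated with compounds in 96-well format at 200 μl, then 10-fold serially diluted in PBS and 10 μl spots plated on LB agar. Plates incubated overnight at 37 °C; colonies counted at lowest resolvable dilution to give CFU. Three biological replicates.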

[4] = tested on: S. aureus DSM2569; assay: MIC, standard microdilution assay, growing S. aureus; assay type: cell-based, Staphylococcus aureus; details: Staphylococcus aureus, DSM2569; S. aureus; CA-MHB pH 7.4; read-out: MIC (μM) CA-MHB
How it was run: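 Standard microdilution protocol, triplicate wells. For S. flexneri the growth medium is TSB. The other three strains are grown in HEPES-buffered (40 mM, pH 7.4) CA-MHB, and UPEC is also run at pH 5.5 in LPM containing 30 mM MES.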

[5] = E. coli in 1:4 CA-MHB (pH 7.4), drug concentration 0.25
[6] = E. coli in 1:4 CA-MHB (pH 7.4), drug concentration 0.25, before treatment 8.977
[7] = E. coli in 1:4 CA-MHB (pH 7.4), drug concentration 0.5
[8] = E. coli in 1:4 CA-MHB (pH 7.4), drug concentration 0.5, before treatment 8.977
[9] = E. coli in 1:4 CA-MHB (pH 7.4), drug concentration 1
[10] = E. coli in 1:4 CA-MHB (pH 7.4), drug concentration 1, before treatment 8.977
[11] = E. coli in 1:4 CA-MHB (pH 7.4), drug concentration 2.5
[12] = E. coli in 1:4 CA-MHB (pH 7.4), drug concentration 2.5, before treatment 8.977
[13] = E. coli in 1:4 CA-MHB (pH 7.4), drug concentration 5
[14] = E. coli in 1:4 CA-MHB (pH 7.4), drug concentration 5, before treatment 8.977
[15] = E. coli in 1:4 CA-MHB (pH 7.4), drug concentration 10
[16] = E. coli in 1:4 CA-MHB (pH 7.4), drug concentration 10, before treatment 8.977

SMILES | killing, average Δlog10(CFU/ml) ([1]; drug concentration 0.1) | log10(CFU/ml) of treated nongrowing bacteria (single replicates) ([1]; drug concentration 0.1) | killing, average Δlog10(CFU/ml) ([1]; drug concentration 0.5) | log10(CFU/ml) of treated nongrowing bacteria (single replicates) ([1]; drug concentration 0.5) | killing, average Δlog10(CFU/ml) ([1]; drug concentration 2.5) | log10(CFU/ml) of treated nongrowing bacteria (single replicates) ([1]; drug concentration 2.5) | killing, average Δlog10(CFU/ml) ([1]; drug concentration 10) | log10(CFU/ml) of treated nongrowing bacteria (single replicates) ([1]; drug concentration 10) | pEC50 ([2]; pH 7.4, 1:4 CA-MHB) | killing, average Δlog10(CFU/ml) [3, 5] | log10(CFU/ml) of treated nongrowing bacteria (single replicates) [3, 6] | killing, average Δlog10(CFU/ml) [3, 7] | log10(CFU/ml) of treated nongrowing bacteria (single replicates) [3, 8] | killing, average Δlog10(CFU/ml) [3, 9] | log10(CFU/ml) of treated nongrowing bacteria (single replicates) [3, 10] | killing, average Δlog10(CFU/ml) [3, 11] | log10(CFU/ml) of treated nongrowing bacteria (single replicates) [3, 12] | killing, average Δlog10(CFU/ml) [3, 13] | log10(CFU/ml) of treated nongrowing bacteria (single replicates) [3, 14] | killing, average Δlog10(CFU/ml) [3, 15] | also measured
C[C@@H]1CN(c2c(F)c(N)c3c(=O)c(C(=O)O)cn(C4CC4)c3c2F)C[C@H](C)N1 [Sparfloxacin] | 0.268 log10(CFU/ml) | 8.602 log10(CFU/ml) and 9.079 log10(CFU/ml) and 8.176 log10(CFU/ml) | 0.923 log10(CFU/ml) | 8.114 log10(CFU/ml) and 8.000 log10(CFU/ml) and 7.778 log10(CFU/ml) | 3.104 log10(CFU/ml) | 5.903 log10(CFU/ml) and 6.845 log10(CFU/ml) and 4.602 log10(CFU/ml) | 4.887 log10(CFU/ml) | =<4 log10(CFU/ml) | 5.20 | 0.241 log10(CFU/ml) | 8.954 log10(CFU/ml) and 8.778 log10(CFU/ml) and 8.477 log10(CFU/ml) | 0.055 log10(CFU/ml) | 9.114 log10(CFU/ml) and 8.699 log10(CFU/ml) and 8.954 log10(CFU/ml) | 0.246 log10(CFU/ml) | 9.114 log10(CFU/ml) and 8.301 log10(CFU/ml) and 8.778 log10(CFU/ml) | 0.077 log10(CFU/ml) | 9.380 log10(CFU/ml) and 8.477 log10(CFU/ml) and 8.845 log10(CFU/ml) | 0.562 log10(CFU/ml) | 8.602 log10(CFU/ml) and 8.342 log10(CFU/ml) and 8.301 log10(CFU/ml) | 1.084 log10(CFU/ml) | log10(CFU/ml) of treated nongrowing bacteria (single replicates) [3, 16]: 8.301 log10(CFU/ml) and 7.602 log10(CFU/ml) and 7.778 log10(CFU/ml); MIC [4]: 0.25 µM (≈ 0.0981 µg/mL)
N[C@@H]1[C@H]2CN(c3nc4c(cc3F)c(=O)c(C(=O)O)cn4-c3ccc(F)cc3F)C[C@@H]12 [Trovafloxacin] | 0.236 log10(CFU/ml) | 8.699 log10(CFU/ml) and 8.954 log10(CFU/ml) and 8.301 log10(CFU/ml) | 0.717 log10(CFU/ml) | 7.954 log10(CFU/ml) (2×) and 8.602 log10(CFU/ml) | 1.077 log10(CFU/ml) | 7.778 log10(CFU/ml) and 7.954 log10(CFU/ml) and 7.699 log10(CFU/ml) | 1.687 log10(CFU/ml) | 7.301 log10(CFU/ml) (2×) and 7.000 log10(CFU/ml) | 5.90 | 0.343 log10(CFU/ml) | 9.041 log10(CFU/ml) and 8.447 log10(CFU/ml) and 8.415 log10(CFU/ml) | 0.539 log10(CFU/ml) | 8.699 log10(CFU/ml) and 8.362 log10(CFU/ml) and 8.255 log10(CFU/ml) | 0.839 log10(CFU/ml) | 8.255 log10(CFU/ml) and 8.204 log10(CFU/ml) and 7.954 log10(CFU/ml) | 1.866 log10(CFU/ml) | 7.255 log10(CFU/ml) and 6.903 log10(CFU/ml) and 7.176 log10(CFU/ml) | 2.103 log10(CFU/ml) | 7.146 log10(CFU/ml) and 6.699 log10(CFU/ml) and 6.778 log10(CFU/ml) | 2.608 log10(CFU/ml) | pEC50 ([2]; LPM pH 5.5): 5.29; log10(CFU/ml) of treated nongrowing bacteria (single replicates) [3, 16]: 6.462 log10(CFU/ml) and 6.322 log10(CFU/ml) (2×); killing, average Δlog10(CFU/ml) ([3]; E. coli in LPM (pH 5.5), drug concentration 0.25): 0.094 log10(CFU/ml); log10(CFU/ml) of treated nongrowing bacteria (single replicates) ([3]; E. coli in LPM (pH 5.5), drug concentration 0.25, before treatment 7.350): 7.146 log10(CFU/ml) and 6.544 log10(CFU/ml) and 8.079 log10(CFU/ml); killing, average Δlog10(CFU/ml) ([3]; E. coli in LPM (pH 5.5), drug concentration 0.5): 0.009 log10(CFU/ml); log10(CFU/ml) of treated nongrowing bacteria (single replicates) ([3]; E. coli in LPM (pH 5.5), drug concentration 0.5, before treatment 7.350): 7.146 log10(CFU/ml) and 6.732 log10(CFU/ml) and 8.146 log10(CFU/ml); killing, average Δlog10(CFU/ml) ([3]; E. coli in LPM (pH 5.5), drug concentration 1): 0.00468 log10(CFU/ml); log10(CFU/ml) of treated nongrowing bacteria (single replicates) ([3]; E. coli in LPM (pH 5.5), drug concentration 1, before treatment 7.350): 7.255 log10(CFU/ml) and 6.740 log10(CFU/ml) and 8.041 log10(CFU/ml); killing, average Δlog10(CFU/ml) ([3]; E. coli in LPM (pH 5.5), drug concentration 2.5): 0.225 log10(CFU/ml); log10(CFU/ml) of treated nongrowing bacteria (single replicates) ([3]; E. coli in LPM (pH 5.5), drug concentration 2.5, before treatment 7.350): 7.230 log10(CFU/ml) and 6.447 log10(CFU/ml) and 7.699 log10(CFU/ml); killing, average Δlog10(CFU/ml) ([3]; E. coli in LPM (pH 5.5), drug concentration 5): 0.336 log10(CFU/ml); log10(CFU/ml) of treated nongrowing bacteria (single replicates) ([3]; E. coli in LPM (pH 5.5), drug concentration 5, before treatment 7.350): 6.699 log10(CFU/ml) and 6.763 log10(CFU/ml) and 7.580 log10(CFU/ml); killing, average Δlog10(CFU/ml) ([3]; E. coli in LPM (pH 5.5), drug concentration 10): 0.963 log10(CFU/ml); log10(CFU/ml) of treated nongrowing bacteria (single replicates) ([3]; E. coli in LPM (pH 5.5), drug concentration 10, before treatment 7.350): 6.146 log10(CFU/ml) and 6.415 log10(CFU/ml) and 6.602 log10(CFU/ml); MIC [4]: 0.125 µM (≈ 0.052 µg/mL)
